Read-outs that look alike come from different tables or passages of the source.
Assays:
[1] = tested on: HCV genotype 1a (H77 strain) replicon in HUH-7 cells; experiment: HCV replicon luciferase reporter assay, genotype 1a; format: cell-based; details: Hepatitis C virus, Huh-7, 72 h, HCV genotype 1a replicon luciferase, 3 days incubation
Procedure, shortened: (§1)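 Replicon inhibition for both genotypes was measured as Renilla luciferase signal (EnduRen, 7.5 μM final, 2 h) after 3-day, 37° C exposure of replicon-bearing HUH-7 cells in 4% FCS DMEM, 0.5% DMSO. The 1b construct carries S1179I; the 1a H77 construct carries P1496L and S2204I. Twenty-point, 3-fold dilutions were fitted four-parametrically for EC50, and CC50 was taken from multiplexed Cell Titer-Blue.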

[2] = tested on: HCV genotype 1b (Con1) replicon in HUH-7 cells; experiment: HCV replicon luciferase reporter assay, genotype 1b; format: cell-based; details: Hepatitis C virus, Huh-7, 72 h, HCV genotype 1b replicon luciferase, 3 days incubation
Procedure, shortened: as §1

In the case of COc1ccc(-c2nc(O[C@@H]3C[C@H]4C(=O)N[C@]5(C(=O)NS(=O)(=O)C6CC6)C[C@H]5/C=C\CC[C@H](C)C[C@@H](C)[C@H](NC(=O)OC(C)(C)C)C(=O)N4C3)c3ccc(OC)cc3n2)cc1 [Compound 5001, tert-butyl ((2R,6S,7R,9S,13aS,14aR,16aS,Z)-14a-((cyclopropylsulfonyl)carbamoyl)-2-((7-methoxy-2-(4-methoxyphenyl)quinazolin-4-yl)oxy)-7,9-dimethyl-5,16-dioxo-1,2,3,5,6,7,8,9,10,11,13a,14,14a,15,16,16a-hexadecahydrocyclopropa[e]pyrrolo[1,2-a][1,4]diazacyclopentadecin-6-yl)carbamate], the EC50 ([1]; read-out: LE_1a (EC50, range)) is reported as under 5.46 nM and the EC50 ([2]; read-out: LE_1b (EC50, range)) is reported as under 5.46 nM.
Compound COc1ccc(-c2nc(O[C@@H]3C[C@H]4C(=O)N[C@]5(C(=O)NS(=O)(=O)C6CC6)C[C@H]5/C=C\CC[C@@H](C)C[C@@H](C)[C@H](NC(=O)OC(C)(C)C)C(=O)N4C3)c3ccc(OC)cc3n2)cc1 [Compound 5002, tert-butyl ((2R,6S,7R,9R,13aS,14aR,16aS,Z)-14a-((cyclopropylsulfonyl)carbamoyl)-2-((7-methoxy-2-(4-methoxyphenyl)quinazolin-4-yl)oxy)-7,9-dimethyl-5,16-dioxo-1,2,3,5,6,7,8,9,10,11,13a,14,14a,15,16,16a-hexadecahydrocyclopropa[e]pyrrolo[1,2-a][1,4]diazacyclopentadecin-6-yl)carbamate] has an EC50 ([1]; read-out: LE_1a (EC50, range)) of under 5.46 nM and an EC50 ([2]; read-out: LE_1b (EC50, range)) of under 5.46 nM.
COc1nnc(O[C@@H]2C[C@H]3C(=O)N[C@]4(C(=O)NS(=O)(=O)C5CC5)C[C@H]4/C=C\CC[C@H](C)C[C@@H](C)[C@H](NC(=O)OC(C)(C)C)C(=O)N3C2)c2ccccc12 [Compound 5003, tert-butyl ((2R,6S,7R,9S,13aS,14aR,16aS,Z)-14a-((cyclopropylsulfonyl)carbamoyl)-2-((4-methoxyphthalazin-1-yl)oxy)-7,9-dimethyl-5,16-dioxo-1,2,3,5,6,7,8,9,10,11,13a,14,14a,15,16,16a-hexadecahydrocyclopropa[e]pyrrolo[1,2-a][1,4]diazacyclopentadecin-6-yl)carbamate] was tested, and the EC50 ([1]; read-out: LE_1a (EC50)) was 5.46 nM, the EC50 ([1]; read-out: LE_1a (EC50, range)) was 4.82 to 103 nM and the EC50 ([2]; read-out: LE_1b (EC50)) was 1.96 nM. The EC50 ([2]; read-out: LE_1b (EC50, range)) was under 5.46 nM.
In the case of COc1nnc(O[C@@H]2C[C@H]3C(=O)N[C@]4(C(=O)NS(=O)(=O)C5CC5)C[C@H]4/C=C\CC[C@@H](C)C[C@@H](C)[C@H](NC(=O)OC(C)(C)C)C(=O)N3C2)c2ccccc12 [Compound 5004, tert-butyl ((2R,6S,7R,9R,13aS,14aR,16aS,Z)-14a-((cyclopropylsulfonyl)carbamoyl)-2-((4-methoxyphthalazin-1-yl)oxy)-7,9-dimethyl-5,16-dioxo-1,2,3,5,6,7,8,9,10,11,13a,14,14a,15,16,16a-hexadecahydrocyclopropa[e]pyrrolo[1,2-a][1,4]diazacyclopentadecin-6-yl)carbamate], the EC50 ([1]; read-out: LE_1a (EC50, range)) is reported as under 5.46 nM and the EC50 ([2]; read-out: LE_1b (EC50, range)) is reported as under 5.46 nM.
COc1nnc(O[C@@H]2C[C@H]3C(=O)N[C@]4(C(=O)NS(=O)(=O)C5CC5)C[C@H]4/C=C\CC[C@H](C)C[C@@H](C)[C@H](NC(=O)OC(C)(C)C(F)(F)F)C(=O)N3C2)c2ccccc12 [Compound 5005, 1,1,1-trifluoro-2-methylpropan-2-yl((2R,6S,7R,9S,13aS,14aR,16aS,Z)-14a-((cyclopropylsulfonyl)carbamoyl)-2-((4-methoxyphthalazin-1-yl)oxy)-7,9-dimethyl-5,16-dioxo-1,2,3,5,6,7,8,9,10,11,13a,14,14a,15,16,16a-hexadecahydrocyclopropa[e]pyrrolo[1,2-a][1,4]diazacyclopentadecin-6-yl)carbamate] was tested, and the EC50 ([1]; read-out: LE_1a (EC50, range)) was under 5.46 nM and the EC50 ([2]; read-out: LE_1b (EC50, range)) was under 5.46 nM.
